Data from US20250262331A1, “COMPOSITION AND METHODS FOR IMPROVING SIGNS AND SYMPTOMS OF OCULAR DISORDERS” (Azura Ophthalmics Ltd., priority 2022, published 2025).

Tested on: sebaceous cells
Test: Preclinical sebum production in sebaceous cells
Type: cell-based
Details: preclinical data; lower effect observed at higher concentrations

S=[Se]=S [selenium disulfide]
effect on sebum production in sebaceous cells: non-linear dose response
